Tested on: female F344 rats
Experiment: Effect on bone density (oophorectomized rats, femur, DXA)
Type: in vivo, rat
Conditions: 25 mg/kg orally once a day, six days a week, six weeks, Dunnett's test
Protocol: Eight to 12 week old female F344 rats were purchased from Charles River Laboratories Japan, Inc. and used in the following experiment.
This test was conducted at N=8. Rats were anesthetized by the intraperitoneal administration of 40 mg/kg of Somnopentyl (purchased from Kyoritsu Seiyaku Corporation), followed by oophorectomy.
From the day after surgery, a control group received a 0.5% methyl cellulose solution (purchased from Wako Pure Chemical Industries, Ltd., Cat. No. 133-14255) alone, whereas another group received a suspension of the test compound in this solution (0.5% methyl cellulose solution), for the test.
The administration was performed orally once a day, six days a week. Six weeks after administration, the rats were euthanized by removal of whole blood from the lower abdominal aorta under Somnopentyl anesthesia, and the left and right femur was excised.
After removal of soft tissues, the bone density of the femur thus excised was measured (apparatus: DXA apparatus DCS-600R manufactured by Aloka Co., Ltd.). The bone density was assessed in the whole femur as well as in three equal sections of the whole femur, namely the proximal end, the shaft, and the distal end.
The Dunnett's test was used in certification.

COCC(=O)N1CCC(c2oc3c(C)c(O)ccc3c(=O)c2C)CC1 [Example 11, 7-Hydroxy-2-[1-(methoxyacetyl)piperidin-4-yl]-3,8-dimethyl-4H-chromen-4-one]
bone density of the femur compared with the control group: significantly increased the bone density

Reference: patent publication US9221811B2, “Chromone derivative having osteogenesis promoting effect” (Daiichi Sankyo Company, Limited, priority 2012, dated 2015)
